Experimental data: US20210401805A1, “Immune CB1 Activation for Obesity Therapy” (University of South Carolina, priority 2020, published 2021)
“Also recorded” adds a separate entry of the source.

Legend:
12-week HFD-fed DIO mice [1] = experiment: DIO intervention study: body weight, fat mass, fat pad weight, food intake; type: in vivo; conditions: 21 consecutive days
[2] = test system: epididymal CD11b+F4/80+ ATMs and CD11c+ M1 ATMs; experiment: Flow cytometry of epididymal adipose tissue macrophages in DIO intervention study; type: in vivo, mice
[3] = test system: 12-week HFD-fed CB2−/− DIO mice; experiment: DIO intervention study in CB2-/- mice: body weight, adiposity, appetite; type: in vivo; conditions: AM251 10 mg/kg oral gavage, 21 consecutive days
DIO mice [4] = conditions: 4 weeks' treatment of DIO mice; cited from earlier work
6-week 36% HFD-fed mice = conditions: cited from earlier work
[5] = test system: 20 week 21% HFD-fed DIO mice; conditions: 15 days of CB2 agonism; cited from earlier work
12-week HFD-fed DIO mice [6] = experiment: Oral glucose tolerance test in DIO intervention study; type: in vivo; conditions: 21 consecutive days
[7] = test system: diet-induced obese (DIO) mice; conditions: treatment of DIO mice with CB1 antagonist; cited from earlier work
DIO mice [8] = conditions: chronic administration in DIO mice; cited from earlier work
[9] = AM251 10 mg/kg oral gavage, WT DIO mice
[10] = 6-week 36% HFD-fed mice, treatment for 15 days
[11] = JWH-133 5 mg/kg oral gavage, 21 consecutive days, 5 mg/kg
[12] = Deveaux et al., 15 day treatment of 6-week HFD-fed DIO
[13] = SR144528 10 mg/kg oral gavage, versus vehicle-treated mice

With `Cc1c(C(=O)NN2CCCCC2)nn(-c2ccc(Cl)cc2Cl)c1-c1ccc(I)cc1` [AM251] the fat pad mass (12-week HFD-fed DIO mice [1]; AM251 10 mg/kg oral gavage) was “reduced”, the adiposity (12-week HFD-fed DIO mice [1]; [9]) was “reduced” and the appetite (12-week HFD-fed DIO mice [1]; [9]) was “suppressed”. The body weight (12-week HFD-fed DIO mice [1]; [9]) was “weight loss”, the “epididymal ATM numbers” value ([2]; AM251 10 mg/kg oral gavage, after 3 weeks of treatment, 10 mg/kg) was “remained constant; also recorded: persistent abundance” and the adiposity [3] was “reduced”. For the same compound, the appetite [3] was “suppressed”, the body weight [3] was “weight loss” and the body weight (DIO mice [4]) was “rapid and sustained weight loss”.

For `COc1ccc(C(=O)c2c(C)n(CCN3CCOCC3)c3cc(I)ccc23)cc1` [AM630], the “adipose tissue inflammatory markers” value (6-week 36% HFD-fed mice; [10]) is given as “reduced” and the ATMs (6-week 36% HFD-fed mice; 6-week 36% HFD-fed mice) is given as “reduced”.

In the case of `CCCn1c(C)c(C(=O)c2cccc3ccccc23)c2ccccc21` [JWH-015], the adiposity [5] is listed as “reduced”, the appetite response [5] is listed as “anorectic response” and the body weight loss [5] is listed as “approximately 10%”. The glucose tolerance [5] was “improved” and the lipolysis [5] was “increased”.

With `CCCC(C)(C)c1ccc2c(c1)OC(C)(C)[C@@H]1CC=C(C)C[C@@H]21` [JWH-133] the body weight (12-week HFD-fed DIO mice [1]; JWH-133 5 mg/kg oral gavage) was “did not significantly alter”, the fat mass (12-week HFD-fed DIO mice [1]; JWH-133 5 mg/kg oral gavage) was “did not significantly alter” and the food intake (12-week HFD-fed DIO mice [1]; JWH-133 5 mg/kg oral gavage) was “did not significantly alter”. For the same compound, the fat pad mass (12-week HFD-fed DIO mice [1]; JWH-133 5 mg/kg oral gavage, 5 mg/kg) was “fat pad loss; also recorded: fat pad shrinkage”, the glucose tolerance (12-week HFD-fed DIO mice [6]; JWH-133 5 mg/kg oral gavage) was “did not significantly alter” and the “numbers of M1 ATMs per gram of fat” value ([2]; JWH-133 5 mg/kg oral gavage, 21 consecutive days) was “increased”. For the same compound, the “numbers of ATMs per gram of fat” value [2, 11] was “increased and more”, the “total ATMs” value [2, 11] was “promoted persistence; also recorded: stable abundance” and the “adipose tissue inflammatory markers” value (6-week 36% HFD-fed mice; [10]) was “increased”. The body weight (6-week 36% HFD-fed mice; [10]) was “no change”, the obesity (6-week 36% HFD-fed mice; [12]) was “potentiated” and the “white adipose tissue expression of Emr1 (macrophage marker F4/80)” value (6-week 36% HFD-fed mice; [12]) was “increased”.

For `Cc1c(C(=O)NN2CCCCC2)nn(-c2ccc(Cl)cc2Cl)c1-c1ccc(Cl)cc1` [SR141716A], the metabolic impairments [7] is listed as “amelioration”, the obesity [7] is listed as “amelioration” and the adipose tissue inflammation (DIO mice [4]) is listed as “decreased”. For the same compound, the body weight (DIO mice [4]) was “rapid and sustained weight loss”.

In the case of `CCCCCc1cc(O)c2c(c1)OC(C)(C)[C@@H]1CCC(C)=C[C@@H]21` [THC, delta-9-tetrahydrocannabinol], the HFD-induced adiposity (DIO mice [8]) is given as “reduces”, the HFD-induced polyphagia (DIO mice [8]) is given as “reduces” and the HFD-induced weight gain (DIO mice [8]) is given as “reduces”.

With SR144528 the body weight (12-week HFD-fed DIO mice [1]; [13]) was “no changes”, the food intake (12-week HFD-fed DIO mice [1]; [13]) was “no changes” and the glucose tolerance (12-week HFD-fed DIO mice [6]; [13]) was “no changes”. The adipose tissue inflammation ([2]; SR144528 10 mg/kg oral gavage, 21 consecutive days, versus vehicle-treated mice) was “no changes”.
